Patent US12157730B2, “Heteroaryl derivative, method for producing same, and pharmaceutical composition comprising same as effective component” (VORONOI INC., priority 2019, dated 2024)

Molecular target: T1, Ba/F3 cell EGFR Exon20 ins NPH (Homo sapiens, UniProt P00533, INS773NPH)
T1 construct: expressed in transfected cells; host or cells: Ba/F3
Experiment: Ba/F3 cell proliferation suppression, EGFR Exon20 ins NPH
Type: cell-based
Conditions: GI50 class; Ba/F3 cell line with NPH inserted at Exon20 of EGFR; 72 hours
Outline: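 Cells were seeded 24 h before dosing and then treated for 72 hours with compound at final concentrations of 0.3 nM to 50 um. Live cells were measured by CellTiter-Glo luminescence, and GI50 values were derived from growth ratio relative to control across three repeats.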

SMILES | Ba/F3 (NPH) Activity
C=CC(=O)Nc1cc(Nc2cc(N3OCC[C@@H]3c3ccc(F)cc3F)ncn2)c(OC)cc1N1CCN(C2CCN(C)CC2)CC1 [compound 345, N-(5-((6-((R)-3-(2,4-difluorophenyl)isoxazolidine-2-yl)pyrimidine-4-yl)amino)-4-methoxy-2-(4-(1-methylpiperidine-4-yl)piperazine-1-yl)phenyl)acrylamide] | A (GI50 < 50 nM)
C=CC(=O)Nc1cc(Nc2cc(N3OCC[C@@H]3c3cccc(F)c3Cl)ncn2)c(OC)cc1N1CCC(N2CCN(C3CCC3)CC2)CC1 [Example 192, N-(5-((6-((R)-3-(2-chloro-3-fluorophenyl)isoxazolidine-2-yl)pyrimidine-4-yl)amino)-2-(4-(4-cyclobutylpiperazine-1-yl)piperidine-1-yl)-4-methoxyphenyl) acrylamide] | A (GI50 < 50 nM)
C=CC(=O)Nc1cc(Nc2cc(N3OCC[C@@H]3c3cc(F)ccc3F)ncn2)c(OC)cc1N1CCN(C(C)=O)CC1 [compound 298, N-(2-(4-acetylpiperazine-1-yl)-5-((6-((R)-3-(2,5-difluorophenyl)isoxazolidine-2-yl)pyrimidine-4-yl)amino)-4-methoxyphenyl) acrylamide] | A (GI50 < 50 nM)
C=CC(=O)Nc1cc(Nc2cc(N3OCC[C@@H]3c3ccc(F)c(Cl)c3F)ncn2)c(OC)cc1N1CC[C@@H](N(C)C)C1 [compound 599, N-(5-((6-((R)-3-(3-chloro-2,4-difluorophenyl)isoxazolidine-2-yl)pyrimidine-4-yl)amino)-2-((R)-3-(dimethylamino)pyrolidine-1-yl)-4-methoxyphenyl) acrylamide] | A (GI50 < 50 nM)
C=CC(=O)Nc1cc(Nc2cc(N3OCC[C@@H]3c3ccccc3)ncn2)c(OC)cc1N1CCC(N2CCN(CC)CC2)CC1 [Example 55, N-(2-(4-(4-ethylpiperazine-1-yl)piperidine-1-yl)-4-methoxy-5-((6-((R)-3-phenylisoxazolidine-2-yl)pyrimidine-4-yl)amino)phenyl) acrylamide] | A (GI50 < 50 nM)
C=CC(=O)Nc1cc(Nc2cc(N3OCC[C@@H]3c3cccc(Cl)c3Cl)ncn2)c(OC)cc1N1CCC(N2CCOCC2)CC1 [compound 521, N-(5-((6-((R)-3-(2,3-dichlorophenyl)isoxazolidine-2-yl)pyrimidine-4-yl)amino)-4-methoxy-2-(4-morpholinopiperidine-1-yl)phenyl)acrylamide] | A (GI50 < 50 nM)
C=CC(=O)Nc1cc(Nc2cc(N3OCC[C@@H]3c3cccc(F)c3F)ncn2)c(OC)cc1N1CCN(C(C)C)CC1 [compound 334, N-(5-((6-((R)-3-(2,3-difluorophenyl)isoxazolidine-2-yl)pyrimidine-4-yl)amino)-2-(4-isopropylpiperazine-1-yl)-4-methoxyphenyl) acrylamide] | A (GI50 < 50 nM)
C=CC(=O)Nc1cc(Nc2cc(N3OCC[C@@H]3c3ccc(C)nc3)ncn2)c(OC)cc1N1CCN(CC)CC1 [Example 42, N-(2-(4-ethylpiperazine-1-yl)-4-methoxy-5-((6((R)-3-(6-methylpyridine-3-yl)isoxazolidine-2-yl)pyrimidine-4-yl)amino)phenyl) acrylamide] | B (50 nM ≤ GI50 < 500 nM)
C=CC(=O)Nc1cc(Nc2cc(N3OCC[C@@H]3c3cc(F)ccc3F)ncn2)c(OC)cc1N1CCC(N2C[C@H](C)N(C3CC3)C[C@@H]2C)CC1 [Example 171, N-(2-(4-((2S,5S)-4-cyclopropyl-2,5-dimethylpiperazine-1-yl)piperidine-1-yl)-5-((6-((R)-3-(2,5-difluorophenyl)isoxazolidine-2-yl)pyrimidine-4-yl)amino)-4-methoxyphenyl) acrylamide] | A (GI50 < 50 nM)
C=CC(=O)Nc1cc(Nc2cc(N3OCC[C@@H]3c3ccc(F)cc3F)ncn2)c(OC)cc1N1CCC(N2CCN(CCN(C)C)CC2)CC1 [compound 431, N-(5-((6-((R)-3-(2,4-difluorophenyl)isoxazolidine-2-yl)pyrimidine-4-yl)amino)-2-(4-(4-(2-(dimethylamino)ethyl)piperazine-1-yl)piperidine-1-yl)-4-methoxyphenyl) acrylamide] | A (GI50 < 50 nM)
C=CC(=O)Nc1cc(Nc2cc(N3OCC[C@@H]3c3cccc(OC)c3)ncn2)c(OC)cc1N1CCN(C)CC1 [Example 25, N-(4-methoxy-5-((6-((R)-3-(3-methoxyphenyl)isoxazolidine-2-yl)pyrimidine-4-yl)amino)-2-(4-methylpiperazine-1-yl)phenyl) acrylamide] | B (50 nM ≤ GI50 < 500 nM)
C=CC(=O)Nc1cc(Nc2cc(N3OCC[C@@H]3c3cccc(Cl)c3F)ncn2)c(OC)cc1N1CCC(N2C[C@H]3CC[C@@H](C2)O3)CC1 [compound 322, N-(2-(4-((1R,5S)-8-oxa-3-azabicyclo[3.2.1]octan-3-yl)piperidine-1-yl)-5-((6-((R)-3-(3-chloro-2-fluorophenyl)isoxazolidine-2-yl)pyrimidine-4-yl)amino)-4-methoxyphenyl) acrylamide] | A (GI50 < 50 nM)
C=CC(=O)Nc1cc(Nc2cc(N3OCC[C@@H]3c3cc(F)cc(F)c3)ncn2)c(OC)cc1N1CCC(N2CCN(CC3CC3)CC2)CC1 [Example 92, N-(2-(4-(4-(cyclopropylmethyl)piperazine-1-yl)piperidine-1-yl)-5-((6-((R)-3-(3,5-difluorophenyl)isoxazolidine-2-yl)pyrimidine-4-yl)amino)-4-methoxyphenyl) acrylamide] | A (GI50 < 50 nM)
C=CC(=O)Nc1cc(Nc2cc(N3OCC[C@@H]3c3cccc(Cl)c3F)ncn2)c(OC)cc1N1CCC(N2CCN(C3CC3)CC2)CC1 [Example 62, N-(5-((6-((R)-3-(3-chloro-2-fluorophenyl)isoxazolidine-2-yl)pyrimidine-4-yl)amino)-2-(4-(4-cyclopropylpiperazine-1-yl)piperidine-1-yl)-4-methoxyphenyl) acrylamide] | A (GI50 < 50 nM)
C=CC(=O)Nc1cc(Nc2cc(N3OCC[C@@H]3c3cccc(C)c3F)ncn2)c(OC)cc1N1CCC(N2CCN(C(C)=O)CC2)CC1 [compound 421, N-(2-(4-(4-acetylpiperazine-1-yl)piperidine-1-yl)-5-((6-((R)-3-(2-fluoro-3-methylphenyl)isoxazolidine-2-yl)pyrimidine-4-yl)amino)-4-methoxyphenyl) acrylamide] | A (GI50 < 50 nM)
C=CC(=O)Nc1cc(Nc2cc(N3OCC[C@@H]3c3ccc4ccccc4c3)ncn2)c(OC)cc1N1CCN(C)[C@@H](C)C1 [compound 662, N-(2-((S)-3,4-dimethylpiperazine-1-yl)-4-methoxy-5-((6-((R)-3-(naphthalene-2-yl)isoxazolidine-2-yl)pyrimidine-4-yl)amino)phenyl)acrylamide] | B (50 nM ≤ GI50 < 500 nM)

The remaining lines, values ahead:

Ba/F3 (NPH) Activity | SMILES
A (GI50 < 50 nM) | C=CC(=O)Nc1cc(Nc2cc(N3OCC[C@@H]3c3c(F)ccc(F)c3Cl)ncn2)c(OC)cc1N1CCC(N2C[C@H]3C[C@@H]2CO3)CC1 [compound 692, N-(2-(4-((1R,4R)-2-oxa-5-azabicyclo[2.2.1]heptane-5-yl)piperidine-1-yl)-5-((6-((R)-3-(2-chloro-3,6-difluorophenyl)isoxazolidine-2-yl)pyrimidine-4-yl)amino)-4-methoxyphenyl) acrylamide]
A (GI50 < 50 nM) | C=CC(=O)Nc1cc(Nc2cc(N3OCC[C@@H]3Cc3cccc(Cl)c3Cl)ncn2)c(OC)cc1N1CCN(CC)CC1 [compound 1008, N-(5-((6-((S)-3-(2,3-dichlorobenzyl)isoxazolidine-2-yl)pyrimidine-4-yl)amino)-2-(4-ethylpiperazine-1-yl)-4-methoxyphenyl) acrylamide]
A (GI50 < 50 nM) | C=CC(=O)Nc1cc(Nc2cc(N3OCC[C@@H]3Cc3ccccc3)ncn2)c(OC)cc1N1CCN(C(C)=O)CC1 [compound 948, N-(2-(4-acetylpiperazine-1-yl)-5-((6-((S)-3-benzylisoxazolidine-2-yl)pyrimidine-4-yl)amino)-4-methoxyphenyl) acrylamide]
A (GI50 < 50 nM) | C=CC(=O)Nc1cc(Nc2cc(N3OCC[C@@H]3c3ccc(Cl)c(F)c3)ncn2)c(OC)cc1N1CCN(CC)CC1 [compound 798, N-(5-((6-((R)-3-(4-chloro-3-fluorophenyl)isoxazolidine-2-yl)pyrimidine-4-yl)amino)-2-(4-ethylpiperazine-1-yl)-4-methoxyphenyl) acrylamide]
A (GI50 < 50 nM) | C=CC(=O)Nc1cc(Nc2cc(N3OCC[C@@H]3c3cccs3)ncn2)c(OC)cc1N(C)CCN(C)C [compound 928, N-(2-((2-(dimethylamino)ethyl) (methyl)amino)-4-methoxy-5-((6-((R)-3-(thiophene-2-yl)isoxazolidine-2-yl)pyrimidine-4-yl)amino)phenyl)acrylamide]
A (GI50 < 50 nM) | C=CC(=O)Nc1cc(Nc2cc(N3OCC[C@@H]3c3cccc(F)c3)ncn2)c(OC)cc1N1C[C@H]2C[C@@H]1CO2 [compound 833, N-(2-((1R,4R)-2-oxa-5-azabicyclo[2.2.1]heptane-5-yl)-5-((6-((R)-3-(3-fluorophenyl)isoxazolidine-2-yl)pyrimidine-4-yl)amino)-4-methoxyphenyl) acrylamide]
A (GI50 < 50 nM) | C=CC(=O)Nc1cc(Nc2cc(N3OCC[C@@H]3Cc3cccc(Cl)c3Cl)ncn2)c(OC)cc1N1CCC(N2CCN(C3CC3)CC2)CC1 [compound 1009, N-(2-(4-(4-cyclopropylpiperazine-1-yl)piperidine-1-yl)-5-((6-((S)-3-(2,3-dichlorobenzyl)isoxazolidine-2-yl)pyrimidine-4-yl)amino)-4-methoxyphenyl) acrylamide]
A (GI50 < 50 nM) | C=CC(=O)Nc1cc(Nc2cc(N3OCC[C@@H]3Cc3cccc(F)c3C)ncn2)c(OC)cc1N(C)CCN(C)C [compound 1000, N-(2-((2-(dimethylamino)ethyl) (methyl)amino)-5-((6-((S)-3-(3-fluoro-2-methylbenzyl)isoxazolidine-2-yl)pyrimidine-4-yl)amino)-4-methoxyphenyl) acrylamide]
